Where two headings read alike, the source gives them in different places. *1 amine or outer side, *2 acyl side, *3 side chain or, on linkers, in order; H or OH if unused. Where a SMILES comes first, the peptide text is derived from it. [ ]: non-standard residue; d: D form. The star is where a group is joined. d(pY) = N[C@H](Cc1ccc(OP(=O)(O)O)cc1)C(=O)O; pY = N[C@@H](Cc1ccc(OP(=O)(O)O)cc1)C(=O)O; d(pS) = N[C@H](COP(=O)(O)O)C(=O)O; Guanidinoacetyl = N=C(N)NCC(=O)*; X2 = Cn1cc(N[*:1])cc1C(=O)[*:2]; X1 = Cn1cc(N)cc1C(=O)*
Legend:
HeLa cells = assay: MTT cell viability of HeLa cells
Description: We examined the cytotoxicity of the synthesized compounds by incubating them with HeLa cells because HeLa cells overexpress ALP and are widely available. By incubating 200 μM of each compound with HeLa cells for 24 hours, we employed MTT assay to determine the cell viability of the HeLa cells. […]
S3. Cel l culture and cell viability
HeLa cell line was purchased from American Type Culture Collection (ATCC, Manassas, VA, USA). HeLa cells were cultured in MEM medium with 100 U mL-1 penicillin and 100 μg mL-1 streptomycin. Cells were cultured at 37 °C in a humidified atmosphere of 5% CO 2.
MTT assay was used to determine the cytotoxicity of the compounds against HeLa cells.
Cells were seeded in 96-well plate at 1.0 × 10^5 cells/well for 24 hours followed by culture medium removal. Fresh culture medium containing different concentrations of compounds were then added. After incubated at 37 °C for 24/48/72 hours, the culture medium with compounds were replaced by fresh culture m edium plus 10 μL of MTT solution (5 mg/mL). After incubated at 37 °C for another 4 hours, 100 μL of SDS-HCl solution was added to stop the reduction and dissolve formazan formed. A DTX880 […]
Multimode Detector was used to measure the absorbance of each well at 595 nm, and cell viability was calculated as percentage relative to untreated cells. Data were […]

[1] = TEM morphology of peptide assemblies before and after ALP; assay type: physicochemical; conditions: 400 μM and 200 μM, PBS buffer pH 7.4
Source text: Figure 3 A) TEM images of 1 before and after addition of ALP (0.5 U/mL) in PBS buffer (pH 7.4). Scale bar is 100 nm. Figure 3A was reprinted with permission from https://pubs.acs.org/doi/10.1021/bm5010355, Copyright 2014 American Chemical Society. This content is not subjected to CC-BY 4.0. Permission requests related to the material excerpted should be directed to the ACS. […] Scale bar is 200 nm.
Figure S1. Cell viability of HeLa cells treated with different compounds.
S4. TEM sample preparation
400-mesh copper grids coated with continuous thick carbon film (~35 nm) were glow discharged, on which 3 μL of samples were placed. After washed with ddH2O and uranyl acetate (UA), the sample-loaded grids were stained with UA. The residual UA was removed by filter paper and then air-dried.

[2] = Circular dichroism of assemblies before and after ALP; assay type: physicochemical; conditions: circular dichroism before and after ALP (Figure S34)
Source text: In addition to the TEM images, we used circular dichroism (CD) to reveal the secondary structures of the assemblies before and after enzymatic action.

[3] = design: method as in PMID 25230147; conditions: TEM, ALP 0.5 U/mL, PBS buffer pH 7.4; cited from earlier work

Cn1cc(N)cc1C(=O)Nc1cc(C(=O)Nc2cc(C(=O)N[C@H](Cc3ccccc3)C(=O)N[C@H](Cc3ccccc3)C(=O)N[C@H](Cc3ccc(OP(=O)(O)O)cc3)C(=O)O)n(C)c2)n(C)c1 [2b]
Cell viability of HeLa cells (HeLa cells; 24 h, 200 μM): 142.6%

Cn1cc(N)cc1C(=O)NCC(=O)NCC(=O)NCC(=O)N[C@H](Cc1ccccc1)C(=O)N[C@H](Cc1ccccc1)C(=O)N[C@H](Cc1ccc(OP(=O)(O)O)cc1)C(=O)O [2f, Py-GGGffpy] (X1-GGG[dF][dF][d(pY)]-OH)
Cell viability of HeLa cells (HeLa cells; 24 h, 200 μM): 92.8%

Cn1cc(NC(=O)c2cc(N)cn2C)cc1C(=O)NCC(=O)NCC(=O)NCC(=O)N[C@@H](Cc1ccccc1)C(=O)N[C@@H](Cc1ccccc1)C(=O)N[C@@H](Cc1ccc(OP(=O)(O)O)cc1)C(=O)O [3a] (X1-[X2]GGGFF[pY]-OH)
Cell viability of HeLa cells (HeLa cells; 24 h, 200 μM): 86.0%

Cn1cc(NC(=O)c2cc(NC(=O)c3cc(N)cn3C)cn2C)cc1C(=O)NCC(=O)NCC(=O)NCC(=O)N[C@@H](Cc1ccccc1)C(=O)N[C@@H](Cc1ccccc1)C(=O)N[C@@H](Cc1ccc(OP(=O)(O)O)cc1)C(=O)O [3b] (X1-[X2][X2]GGGFF[pY]-OH)
Cell viability of HeLa cells (HeLa cells; 24 h, 200 μM): 97.2%

Cn1cc(NC(=O)c2cc(N)cn2C)cc1C(=O)NCC(=O)NCC(=O)NCC(=O)N[C@H](Cc1ccccc1)C(=O)N[C@H](Cc1ccccc1)C(=O)N[C@H](COP(=O)(O)O)C(=O)O [4a] (X1-[X2]GGG[dF][dF][d(pS)]-OH)
Cell viability of HeLa cells (HeLa cells; MTT, 200 μM, 24 h, 37 °C, absorbance 595 nm, relative to untreated cells, n = 3 wells): 69.2% | Cell viability of HeLa cells (HeLa cells; MTT, 400 μM, day 1, n = 3 wells): 72.3% | Inhibition of HeLa cell proliferation (in words) (HeLa cells; MTT, 20 to 400 μM, day 2 and 3): largely vanishes | Change of morphology of the assemblies after ALP ([1]; 1 U/mL ALP, 24 h): little change in the morphology | Morphology of the assemblies before ALP [1]: networks of nanoparticles | Change of CD signal upon ALP treatment [2]: merely slight changes

Cn1cc(NC(=O)CNC(=N)N)cc1C(=O)NCC(=O)NCC(=O)NCC(=O)N[C@H](Cc1ccccc1)C(=O)N[C@H](Cc1ccccc1)C(=O)N[C@H](Cc1ccc(OP(=O)(O)O)cc1)C(=O)O [10a] (Guanidinoacetyl-[X2]GGG[dF][dF][d(pY)]-OH)
Cell viability of HeLa cells (HeLa cells; 24 h, 200 μM): about 70%

Cn1cc(NC(=O)c2cc(NC(=O)CNC(=N)N)cn2C)cc1C(=O)NCC(=O)NCC(=O)NCC(=O)N[C@H](Cc1ccccc1)C(=O)N[C@H](Cc1ccccc1)C(=O)N[C@H](Cc1ccc(OP(=O)(O)O)cc1)C(=O)O [10b] (Guanidinoacetyl-[X2][X2]GGG[dF][dF][d(pY)]-OH)
Cell viability of HeLa cells (HeLa cells; 24 h, 200 μM): about 70%

O=C(Cc1ccc2ccccc2c1)N[C@H](Cc1ccccc1)C(=O)N[C@H](Cc1ccccc1)C(=O)N[C@H](Cc1ccc(OP(=O)(O)O)cc1)C(=O)O [compound 1, Nap-ffpy, reference compound]
Inhibition / compatibility with HeLa cells (in words) (HeLa cells; 400 μM): significantly inhibits | Inhibition of HeLa cell proliferation (in words) (HeLa cells; MTT, 200 μM, day 3): begins to reduce cell viability | Inhibition of HeLa cell proliferation (in words) (HeLa cells; MTT, concentrations lower than 100 μM, over 3 days): hardly inhibits | Change of CD signal upon ALP treatment [2]: significant change | Change of morphology of the assemblies after ALP [3]: morphological transition from nanoparticles of 1 to networks of nanofibers

Cn1cc(NC(=O)OC(C)(C)C)cc1C(=O)Nc1cc(C(=O)N[C@H](Cc2ccccc2)C(=O)N[C@H](Cc2ccccc2)C(=O)N[C@H](Cc2ccc(OP(=O)(O)O)cc2)C(=O)O)n(C)c1 [compound 9]
Cell viability of HeLa cells (HeLa cells; 24 h, 200 μM): about 70%
